Laboratory results: patent US20220390432A1, “METHODS OF CHARACTERIZING AND UTILIZING AGENT-CONDENSATE INTERACTIONS” (Whitehead Institute for Biomedical Research, priority 2019, published 2022)
No end group written: not given here.

T1: ER/MED1 droplets (Homo sapiens, UniProt P03372)
T1 sequence (P03372 1-595): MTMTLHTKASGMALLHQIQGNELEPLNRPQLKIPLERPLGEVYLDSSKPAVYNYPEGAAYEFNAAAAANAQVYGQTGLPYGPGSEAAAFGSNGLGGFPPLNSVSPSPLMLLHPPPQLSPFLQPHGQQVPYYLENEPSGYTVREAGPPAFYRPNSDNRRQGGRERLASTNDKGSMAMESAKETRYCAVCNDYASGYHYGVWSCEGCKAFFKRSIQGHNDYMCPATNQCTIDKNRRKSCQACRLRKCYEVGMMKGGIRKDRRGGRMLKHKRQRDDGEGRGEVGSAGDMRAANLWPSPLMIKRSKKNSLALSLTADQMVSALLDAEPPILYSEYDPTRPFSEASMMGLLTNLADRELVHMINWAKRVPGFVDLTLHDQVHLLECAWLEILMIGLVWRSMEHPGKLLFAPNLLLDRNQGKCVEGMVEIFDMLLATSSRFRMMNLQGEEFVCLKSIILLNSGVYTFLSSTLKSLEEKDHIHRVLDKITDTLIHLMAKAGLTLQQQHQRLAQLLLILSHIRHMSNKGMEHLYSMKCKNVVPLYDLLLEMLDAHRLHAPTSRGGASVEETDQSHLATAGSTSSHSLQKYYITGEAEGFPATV


Columns and labels:
[1] = tested on: MED1, BRD4, and POL2 condensates in HCT116 colon cancer cell lines; assay: Small molecule effects on transcriptional condensates in GFP-tagged HCT116 cells; assay type: cell-based, human; details: for effect of antimetabolites on MED1, BRD4 or POL2 condensates: 5 uM; for effect on transcriptional condensates: MED1-GFP, BRD4-GFP, POL2-GFP HCT116
From the text: HCT116 colon cancer cell lines endogenously tagged with MED1-GFP, BRD4-GFP, POL2-GFP, or HP1a-GFP (Mock), all forming condensates in the nucleus.

[2] = molecular target: T2, MED1 (Homo sapiens, UniProt Q15648); assay: In vitro droplet assay, small molecule partitioning into MED1 condensates; assay type: binding; details: confocal fluorescence; Example 2: 125 mM NaCl, 10% PEG, 10 μM protein; fluorescent or fluorescently labeled drug
T2 construct: MED1—amino acids 600-1581; 6xHis (N); made in house; host or cells: LOBSTR cells (E. coli)
T2 sequence (Q15648 600-1581): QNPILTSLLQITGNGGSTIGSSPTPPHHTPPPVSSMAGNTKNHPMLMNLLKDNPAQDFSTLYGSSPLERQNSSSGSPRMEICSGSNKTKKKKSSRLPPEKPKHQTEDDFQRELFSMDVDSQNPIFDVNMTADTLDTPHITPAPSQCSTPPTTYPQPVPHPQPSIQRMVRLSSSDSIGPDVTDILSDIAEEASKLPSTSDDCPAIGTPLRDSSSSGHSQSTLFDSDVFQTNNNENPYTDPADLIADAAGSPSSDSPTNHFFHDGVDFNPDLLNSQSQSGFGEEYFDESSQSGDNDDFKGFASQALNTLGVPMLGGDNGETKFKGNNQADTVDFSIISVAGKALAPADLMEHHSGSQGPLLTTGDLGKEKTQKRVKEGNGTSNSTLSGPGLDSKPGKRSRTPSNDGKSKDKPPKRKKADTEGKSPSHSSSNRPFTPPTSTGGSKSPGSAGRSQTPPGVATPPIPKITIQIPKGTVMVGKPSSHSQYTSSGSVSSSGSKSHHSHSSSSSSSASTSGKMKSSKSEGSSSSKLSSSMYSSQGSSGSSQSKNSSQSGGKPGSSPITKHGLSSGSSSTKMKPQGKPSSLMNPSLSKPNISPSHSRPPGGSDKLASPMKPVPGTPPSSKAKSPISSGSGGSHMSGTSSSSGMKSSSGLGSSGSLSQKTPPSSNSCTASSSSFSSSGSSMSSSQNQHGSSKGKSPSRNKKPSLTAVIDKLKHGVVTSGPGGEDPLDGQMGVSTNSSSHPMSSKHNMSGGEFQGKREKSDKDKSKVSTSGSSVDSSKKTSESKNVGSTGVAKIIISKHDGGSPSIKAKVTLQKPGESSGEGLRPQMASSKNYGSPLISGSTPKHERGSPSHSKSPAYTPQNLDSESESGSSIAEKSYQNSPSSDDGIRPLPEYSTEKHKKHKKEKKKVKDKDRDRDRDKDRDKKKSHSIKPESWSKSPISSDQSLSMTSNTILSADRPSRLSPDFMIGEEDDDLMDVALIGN
Description: (§1) Recombinant BFP, GFP, or mCherry fusion proteins were concentrated and desalted to an appropriate protein concentration and 125 mM NaCl using Amicon Ultra centrifugal filters (30K MWCO, Millipore). Recombinant protein was added too. […] The protein solution was immediately loaded onto glass bottom 384 well plate (Cellvis P384-1.5H-N) and imaged with an Andor confocal microscope with a 150× objective. Unless indicated, images presented are of droplets settled on the glass coverslip.
Drug and small molecule concentrations used in the droplet experiments are as follows:
To analyze in vitro droplet experiments, custom Python scripts using the scikit-image package were written to identify droplets and characterize their size, shape and intensity. Droplets were segmented from average images of captured channels on various criteria: (1) an intensity threshold that was three s.d. above the mean of the image; (2) size thresholds (20 pixel minimum droplet size); and (3) a minimum circularity (circularity=4π·areaperimeter2) (circularity=4π·areaperimeter2) of 0.8 (1 being a perfect circle). After segmentation, mean intensity for each droplet was calculated while excluding pixels near the phase interface, and background-corrected by subtracting intensity of dark images of droplet formation buffer only. Droplets identified in the channel of the fluorescent protein from ten independent fields of view were quantified for each experiment. The maximum intensity of signal within the droplets was calculated for each channel, the maximum intensity in the drug channel was termed “maximum drug intensity”. To obtain the intensity of drug or dye alone in the diffuse state (termed “diffuse drug intensity”), the compound was added to droplet formation buffer at same concentration used in the droplet assay. This was then imaged on a confocal fluorescent microscope. The resulting image was processed in FIJI to obtain the fluorescent intensity of the field. To obtain the fluorescent intensity of protein droplets that bleed through in the drug channel (termed “background intensity”) protein droplets were imaged in the fluorescent channel in which the drug fluoresces and processed as above to obtain the average maximum intensity within the droplet across 10 images. The enrichment ratio was obtained by the following formula [(maximum drug intensity)−(background intensity)]/(diffuse drug intensity). The box plots show the distributions of all droplets. Each dot represents an individual droplet.

[3] = Droplet formation assay of small molecule alone without any protein; assay type: physicochemical; details: without any protein added
Description: as §1, with “Recombinant protein was added too.” left out

[4] = molecular target: T1, ER/MED1 droplets; assay: Peptides added to ER/MED1 droplets; assay type: biochemical; details: for effect of peptide on ER partitioning / ER/MED1 droplet formation: in the presence of estrogen
Description: FIG. 24 illustrates ER/MED1 droplets contacted with a fluorescent peptide (left side).
A number of condensate components are known to form in vitro condensates. In general, one or more condensate components are added to solutions (e.g. aqueous solution) at varying concentrations in the presence of a salt (e.g., NaCl) and, optionally, a crowding agent (e.g., polyethylene glycol, Ficoll). See, e.g., Boija et al, Cell, vol. 175, no. 7, pp. 1842-1855 (2018); Sabari et al., Science, vol. 361, pp. 361-371 (2018); Bergeron-Sandoval et al., Cell, vol. 165, no. 5, pp. 1067-1079 (2016). May 19; 165(5):1067-1079, the relevant methods of which are specifically incorporated herein. In some embodiments, in vitro MED1 containing condensates are formed by adding about 10 μM of MED1 to a solution containing […] of NaCl and 10% PEG (e.g., PEG-8000).

[5] = molecular target: T3, MED1 droplets (Homo sapiens, UniProt Q15648); assay: In vitro droplet drug chase out experiment; assay type: binding; details: 5 μM cisplatin-TR, 10 μM MED1, unlabeled compound 10, 100 or 500 μM
T3 construct: MED1—amino acids 600-1581; 6xHis (N); made in house; host or cells: LOBSTR cells (E. coli)
T3 sequence (Q15648 600-1581): as above
Description: For chase-out experiments 5 μM labeled cisplatin-TR was added to a MED1 droplets reaction (10 μM MED1, 50 mM Tris-HCl pH 7.5, 10% glycerol, 1 mM DTT, 10% PEG) in order to form MED1 droplets concentrated with Cisplatin-TR. Unlabeled transplatin or unlabeled cisplatin (vehicle, 10 μM, 100 μM, or 500 μM) were added to the droplet mixture and the amount of labeled cisplatin-TR remaining in the droplet is measured after chase out. 100 μM fluorescent FLTX1 was added to a MED1 droplets reaction (10 μM MED1, 50 mM Tris-HCl pH 7.5, 10% glycerol, 1 mM DTT, 10% PEG) in order to form MED1 droplets concentrated with FLTX1.

[6] = molecular target: T4, MED1 intrinsically disordered region, amino acids 600-1581, recombinant fluorescent fusion protein (human, UniProt Q15648 600-1581); assay: in vitro droplet assay, peptide added to ER/MED1 droplets
T4 construct: Scaffold protein of the in vitro droplets; also called MED1-IDR; MED1 IDR; not shown: N-terminal 6xHIS plus fluorescent protein (BFP, mEGFP or mCherry)
T4 sequence (Q15648 600-1581 limits assumed): as the sequence (Q15648 600-1581) above

Row | Molecule | partitioning / incorporation into MED1 droplets [2] | effect on transcriptional condensates [1] | further results
1 | O=c1[nH]cc(F)c(=O)[nH]1 [5-FU, fluorouracil] |  |  | effect of antimetabolites on MED1, BRD4 or POL2 condensates [1]: no effect
2 | COc1cccc2c1C(=O)c1c(O)c3c(c(O)c1C2=O)C[C@@](O)(C(C)=O)C[C@@H]3O[C@H]1C[C@H](N)[C@H](O)[C@H](C)O1 [Daunorubicin] | immediately incorporate into MED1 droplets | global dissolution of condensates | effect on transcriptional condensates ([1]; listed as daunorubicin): cause condensate dissolution
3 | Nc1ncn([C@@H]2O[C@H](CO)[C@@H](O)[C@H]2O)c(=O)n1 [5-Aza] |  |  | effect of antimetabolites on MED1, BRD4 or POL2 condensates [1]: no effect
4 | COc1cc(/C=C/C(=O)CC(=O)/C=C/c2ccc(O)c(OC)c2)ccc1O [curcumin] | immediately incorporate into MED1 droplets | cause condensate dissolution | 
5 | CN(C)C/C=C/C(=O)Nc1ccc(C(=O)Nc2cccc(Nc3ncc(Cl)c(-c4c[nH]c5ccccc45)n3)c2)cc1 [THZ1] | concentrated preferentially in MED1 droplets | global dissolution of condensates | droplet formation of small molecule alone [3]: diffuse fluorescent signal
6 | CC(C)C[C@H](NC(=O)[C@H](Cc1ccccc1)NC(=O)c1cnccn1)B(O)O [Bortezomib] |  | global dissolution of condensates | 
7 | QNPILTSLLQITG [LXXLL peptide] |  |  | incorporation of peptide into MED1 droplets ([4]; ER/MED1 droplets): incorporated into MED1 droplets; effect of peptide on ER partitioning / ER/MED1 droplet formation [4]: decrease in partitioning of ER into the MED1 droplet
8 | CNC(=O)Nc1ccc2c(c1)CC[C@@]21OC(=O)N(CC(=O)N(Cc2ccc(F)cc2)[C@@H](C)C(F)(F)F)C1=O [A485] |  | genomic release and consolidation of condensates | 
9 | N.N.[Cl][Pt+2][Cl] [Transplatin, transplatin] |  |  | chase out of cisplatin-TR from MED1 droplets by unlabeled compound [5]: not able to chase out cisplatin-TR; chase out of cisplatin-TR from MED1 droplets by unlabeled compound ([5]; listed as isomer of cisplatin): did not exhibit the same behavior
10 | N#CC(=C(/N)Sc1ccccc1N)/C(C#N)=C(/N)Sc1ccccc1N [U0216] |  | eviction of some condensate components | 
11 | CTD: RNA polymerase II CTD repeat YSPTSPS peptide |  |  | effect of peptide on ER partitioning / ER/MED1 droplet formation [4]: did not have an effect
12 | Texas Red | Neither of the two dyes used to visualized drugs were enriched |  | 
13 | QNPILTSLLQITG (also: fluorescent label, type and position not given here, also called fluorescent peptide) [LXXLL peptide (QNPILTSLLQITG; SEQ ID NO: 1)] |  |  | binding result [6]: binds
